Assay results from the NIST ThermoML archive (doi:10.1021/je700037z).
Numbers after ± are expanded uncertainties.

Details: 101.33 kPa, Liquid, Pycnometric method

- mass density (285 K): 1290 ± 7 kg/m3
- mass density (290 K): 1286 ± 7 kg/m3
- mass density (295 K): 1282 ± 7 kg/m3
- mass density (300 K): 1279 ± 7 kg/m3
- mass density (305 K): 1275 ± 7 kg/m3
SMILES: CCn1cc[n+](C)c1.F[B-](F)(F)F [1-ethyl-3-methylimidazolium tetrafluoroborate]
